Measurements taken from US20190224251A1, “METHODS OF DIFFERENTIATING STEM CELLS INTO ENDODERM” (MEMORIAL SLOAN-KETTERING CANCER CENTER, priority 2016, published 2019).
“Also recorded” adds a separate entry of the source.

How the values were obtained:
HUES8 SOX17GFP/+ cells = test: Definitive endoderm (DE) differentiation, flow cytometry of SOX17-GFP reporter; format: cell-based, human; details: for formation of SOX17+ endoderm cells: Activin A and CHIR-99021 treatment, efficiency sensitive to dosages
Protocol: (§1) Human ES or iPS cells were cultured in E8 medium and routinely passed by EDTA. When cells reach to 80-90% confluences, cells were treated with TrpLE Select and get single cell for passaging. Typically, 0.15 millions human ES or iPS cells were plated in one well of the six-well plates with ROCK inhibitor 10 uM in 2 ML E8 media. For the H1 line, it was typically plated 0.1 million cells to accommodate the higher proliferation rate. Twenty-four hours later, cells were washed with PBS once and add Day0 media (Advanced RPMI (Thermo Fisher Scientific, 12633012) with penicillin/streptomycin (Thermo Fisher Scientific, 15070063), GlutaMAX (Thermo Fisher Scientific, 35050079), 0.003% BSA (Thermo Fisher Scientific, 15260037), […] CHIR-99021 (Tocris, 4423) and 100 ng/ml Activin A (PeperoTech, 12014E)). Over the next 2 days, cells were changed to Day2 media (Advanced RPMI with penicillin/streptomycin, GlutaMAX, 0.2% FBS and 100 ng/ml Activin A). […] JNK inhibitor JNK-IN-8 (Selleckchem, S4901) was used during differentiation when indicated. Routinely, around 60-80% SOX17+ cells were obtained in 3 days.
Cells were dissociated using TrypLE Select and resuspended in FACS buffer (5% FBS, 5 mM EDTA in PBS). First, cells were stained with surface antibody (CXCR4-APC) with LIVE/DEAD violet dye (Molecular Probe, L34955, 1:1,000) for 30 minutes at 4° C. After washing, […] After washing with FACS buffer, cells were fixed and permeabilized in 1× fixation/permeabilization buffer (eBioscience, 00-5523-00) for 30 minutes at 4° C. After fixation and permeabilization, cells were stained with intracellular conjugated antibody (SOX17-PE, GATA6-PE, GATA4-Alexa-647) in permeabilization buffer (eBioscience, 00-5523-00) for 30 minutes at 4° C. After washing with permeabilization buffer, cells were resuspended in FACS buffer, and samples were analyzed using BD LSRfortessa or BD LSRII. Flow cytometry analysis and figures were generated in Flowjo 10.

[1] = system: HUES6 ES cells, and BJ and CV iPS cells; test: Definitive endoderm differentiation in further ES and iPS cell lines, flow cytometry of SOX17; format: cell-based, human; details: without inhibitor efficiency 60-80%
Protocol: as §1
(§2) Cells were dissociated using TrypLE Select and resuspended in FACS buffer (5% FBS, 5 mM EDTA in PBS). […] After washing with permeabilization buffer, cells were resuspended in FACS buffer, and samples were analyzed using BD LSRfortessa or BD LSRII. […]

[2] = system: SOX17 and GATA6 enhancers; test: ChIP-qPCR of SMAD2/3 and JUN binding at the SOX17 and GATA6 enhancers; format: cell-based, human; details: DE cells at Day 2
Protocol: Definitive endoderm cells at Day 2 were collected for chromatin immunoprecipitation. Cells were cross-linked with 1% formaldehyde (Sigma, F1635) at 37° C. for 15 min and quenched with 0.125 M glycine for 5 min at room temperature. ChIP was performed as previously described 52. Samples were incubated with […] of antibody bound to […] Dynabeads protein G (Thermo Fisher Scientific, 1004D), then incubated overnight at 4° C. 2% pre-cleared chromatin prior to primary antibody addition was kept as input DNA. Magnetic beads were washed and chromatin was eluted, and reverse cross-linked ChIP DNA was dissolved in 10 mM Tris pH 8.0 buffer for further analysis. For ChIP-qPCR, immunoprecipitated DNA was analyzed by qPCR, and the amplification product was expressed as percentage of the 2% input.

[3] = system: NKX6.1 and PDX1 expressing pancreatic progenitor cells; test: Pancreatic progenitor differentiation after transient JNK inhibition during DE differentiation; format: cell-based, human; details: flow cytometry and immunostaining
Text: (§3) An improved protocol suitable for endoderm derivative lineage differentiation was developed. The improved protocol dispensed with the use of serum and inhibited JNK on the first day of definitive endoderm differentiation (FIG. 13A).

H1 cell line = test: Definitive endoderm (DE) differentiation, flow cytometry of SOX17; format: cell-based, human
Protocol: as §1, §2

[4] = system: definitive endoderm (SOX17 and CXCR4 expression); test: Serum-free DE differentiation with JNK inhibition on the first day; format: cell-based, human; details: one day of JNK inhibition, no serum
Text: as §3

[5] = system: NKX2.1 expressing lung progenitor cells; test: Lung progenitor differentiation after transient JNK inhibition during DE differentiation; format: cell-based, human; details: flow cytometry
Text: as §3

[6] = system: DE cells differentiated from human ES cells; test: Endoderm differentiation in high or low Activin A condition, flow cytometry (CXCR4/SOX17, GATA6/GATA4) and RT-qPCR; format: cell-based; details: either high or low Activin A condition
Protocol: Human ES or iPS cells were cultured in E8 medium and routinely passed by EDTA. When cells reach to 80-90% confluences, cells were treated with TrpLE Select and get single cell for passaging. Typically, 0.15 millions human ES or iPS cells were plated in one well of the six-well plates with ROCK inhibitor 10 uM in 2 ML E8 media. For the H1 line, it was typically plated 0.1 million cells to accommodate the higher proliferation rate. […]
as §2
Cell pellets were lysed in TRIzol (Thermo Fisher Scientific, 15596018). […] Quantitative real-time PCR was performed in triplicate using ABsolute Blue QPCR SYBR Green Mix with low ROX (Thermo Scientific, #AB4322B) on the ABI PRISM® 7500 Real Time PCR System (Applied Biosystems) using the following protocol: 15 minutes at 95° C. followed by 40 cycles of 15 seconds at 95° C., 30 seconds at 58° C., and 30 seconds at 72° C. The signal was detected at 72° C.

JUN phosphorylation = test: Western blot of JUN phosphorylation in DE cells; format: cell-based, human
Protocol: (§4) Cell pellets were quickly snap frozen in liquid nitrogen and lysated in lysis buffer (Cell Signaling Technology, 9803) with proteinase/phosphatase inhibitors (Cell Signaling Technology, 5872) and 1 mm PMSF (MP Biomedicals, ICN19538105). Proteins were pre-cleared by centrifugation at 14,000 g 4° C. for 10 minutes. Protein concentration was determined by Bradford assay (Bio-Rad, 500-0202). Equal amounts of protein were loaded into Bis-Tris 10% gel (Novex, NP0301BOX) and transferred to nitrocellulose membranes (Novex, LC2001). Membranes were blocked with 5% milk (for non-phosphorylated proteins) or 5% BSA (for phosphorylated proteins). Primary antibody was incubated overnight at 4° C. Membranes were washed with TBST 3 times for 10 minutes each and incubated with secondary antibody for 1 hour at R.T. Membrane were washed with TBST 3 times for 10 minutes each. ECL western blotting detection reagents (Amersham, RPN2236 and Thermo Fisher Scientific, 32106) were used to visualize the protein bands.

[7] = system: C-terminal SMAD2 phosphorylation (Ser465/467) and JUN phosphorylation; test: Western blotting for signaling crosstalk between Nodal and JNK pathways; format: cell-based, human; details: 15 minutes and 1 hour after initiating differentiation
Protocol: as §4

`Cc1c[nH]c(-c2cnc(NCCNc3ccc(C#N)cn3)nc2-c2ccc(Cl)cc2Cl)n1` [CHIR-99021, 6-(2-(4-(2,4-dichlorophenyl)-5-(4-methyl-1H-imidazol-2-yl)pyrimidin-2-ylamino)ethylamino)nicotinonitrile] was tested, and the “formation of SOX17+ endoderm cells” value (HUES8 SOX17GFP/+ cells) was “required” and the “outcome of prolonged WNT activation” value (HUES8 SOX17GFP/+ cells; prolonged CHIR-99021 treatment) was “formation of CXCR4+SOX17− cells”.

With `Cc1cc(NC(=O)c2cccc(NC(=O)/C=C/CN(C)C)c2)ccc1Nc1nccc(-c2cccnc2)n1` [JNK-IN-8] the endoderm differentiation efficiency [1] was “significantly improved”, the “binding of JUN to the SOX17 and GATA6 enhancers” value [2] was “diminished” and the “binding of SMAD2/3 to the SOX17 and GATA6 enhancers” value [2] was “enhanced”. For the same molecule, the “DE differentiation (SOX17GFP+ cells)” value (HUES8 SOX17GFP/+ cells; 1 μm JNK-IN-8, 3 days, HUES8-SOX17GFP, DMSO control ~79%) was roughly 98%, the “requirement for Activin A in Activin A dose titration” value (HUES8 SOX17GFP/+ cells; HUES8 SOX17GFP/+ cells) was “did not omit the requirement for Activin A” and the “SOX17+ cells formed” value (HUES8 SOX17GFP/+ cells; JNK-IN-8 with 20 ng/ml Activin A, HUES8 SOX17GFP/+ cells) was roughly 95%. For the same molecule, the “number of NKX6.1 and PDX1 expressing pancreatic progenitor cells” value [3] was “significantly increased”, the “DE differentiation (SOX17+ cells)” value (H1 cell line; 1 μm JNK-IN-8, 3 days, H1, DMSO control ~66%) was roughly 96% and the “effect on DE differentiation at Day 2 versus Day 3” value (H1 cell line; 1 μm JNK-IN-8, H1 and HUES8-SOX17GFP) was “stronger at Day 2”. For the same molecule, the “induction of definitive endoderm (SOX17 and CXCR4 expression)” value [4] was “sufficient to induce differentiation of definitive endoderm”, the “number of NKX2.1 expressing lung progenitor cells” value [5] was “significantly increased” and the “efficiency of endoderm differentiation based on flow cytometry” value [6] was “greater than 90%”. The “levels of endoderm gene expression from RT-qPCR” value [6] was “increased”, the “phosphorylation of JUN (Western blot)” value (JUN phosphorylation; JNK-IN-8 1 μm, H1-derived DE cells at day 3) was “undetectable; also recorded: inhibition of JUN phosphorylation” and the “total JUN level (Western blot)” value (JUN phosphorylation; JNK-IN-8 treated cells) was “down-regulated”. The “C-terminal SMAD2 phosphorylation (at Ser465/467)” value (“C-terminal SMAD2 phosphorylation” for short) [7] was “did not change” and the “JUN phosphorylation (Western blot)” value [7] was “inhibited”.

With `NC(=O)c1ccc(-c2nc(-c3ccc4c(c3)OCO4)c(-c3ccccn3)[nH]2)cc1` [SB431542] the “C-terminal SMAD2 phosphorylation” value [7] was “blocked” and the “JUN phosphorylation (Western blot)” value [7] was “did not affect”.

B1: Activin A: TGF-β superfamily member that mimics the activity of Nodal (protein, UniProt P08476 311-426, looked up)
Inhibin beta A chain: GLECDGKVNICCKKQFFVSFKDIGWNDWIIAPSGYHANYCEGECPSHIAGTSGSSLSFHSTVINHYRMRGHSPFANLKSCCVPTKLRPMSMLYYDDGQNIIKKDIQNMIVEECGCS
modifications: Inhibin beta A chain
For B1, the “formation of SOX17+ endoderm cells” value (HUES8 SOX17GFP/+ cells) was “required” and the “C-terminal SMAD2 phosphorylation” value [7] was “induces”.
